# Where “and” joins values, the source holds several entries; their conditions need not be identical. Equal values may be shown once.
# Tests used:
# [1] = test system: Severe ADHD; assay: Case study A: (Example 3); type: in vivo, human
# From the text: (§1) The combination of lacosamide and oxcarbazepine has been administered to three additional patients with various symptoms associated with executive function disorder. The combination of lacosamide and oxcarbazepine was successful in alleviating different symptoms of executive function disorder.
# [2] = test system: patients suffering from ADHD; assay: WCST (Example 1); type: in vivo, human
# From the text: (§2) Patients were monitored clinically every week, during the whole duration of the study. They were also monitored on their pedagogic condition and evolution: before any treatment, mid-term and by the end of the lacosamide monotherapy and combination treatment. In addition, the patients were monitored neuropsychologicaly through the administration of different tests, pre- and post-treatment. A basal measure of their executive capabilities was established before any treatment.
# (§3) The results of neuropsychological tests for lacosamide monotherapy and lacosamide and oxcarbazepine combination therapy were evaluated.
# [3] = test system: patients suffering from ADHD; assay: Stroop test (Example 1); type: in vivo, human
# From the text: as §2, §3
# [4] = test system: potassium or calcium currents; settings: cited from earlier work
# [5] = test system: reuptake of norepinephrine, dopamine, and serotonin; settings: cited from earlier work
# [6] = test system: patients suffering from ADHD; assay: Clinical evolution under treatment, weekly clinical and pedagogic monitoring (Example 1); type: in vivo, human
# Description: (§4) The effects of lacosamide monotherapy were tested in three patients (two boys; and one child) suffering from ADHD over the period of 6 months. After the period of 6 months, the treatment was discontinued for 45 days. Next, the three patients were treated with a combination of lacosamide and oxcarbazepine for a period of 3 months. The results of monotherapy and combination therapy were compared.
# as §2
# The treatment was delivered twice a day and went on for at least 3 months.
# (§5) Initially, a dose of 50 mg/12 hrs of lacosamide was administered to every patient. Through the study, the dose of lacosamide was increased (by 100 mg per week) to […] for every patient, following clinical response (on attention capacity, sleep, tiredness, mood stability, comprehension and general cognitive improvement).
# Initially, a dose of 50 mg/12 hrs of lacosamide and a dose of 300 mg/12 hrs of oxcarbazepine was administered to every patient. Through the study, the dose of lacosamide was increased (by 100 mg per week) to 200 mg/12 hrs for every patient, following clinical response (attention capacity, sleep, tiredness, mood stability, comprehension and general cognitive improvement). In response to clinical presentation of all three patients, the dose of lacosamide was decreased to 100 mg/12 hrs and maintained thereafter. The dose for oxcarbazepine was increased in week 7 to 450 mg/12 hrs for every patient, maintaining the previously reached respective doses for lacosamide.
# [7] = target: GABA transaminase (Homo sapiens, UniProt P80404); settings: cited from earlier work
# [8] = test system: patients suffering from ADHD; assay: TONI-2 nonverbal reasoning test (Example 1); type: in vivo, human
# From the text: as §2, §3
# [9] = test system: patients suffering from ADHD; assay: Conners' Continuous Performance Test CPT-2 (Example 1); type: in vivo, human
# From the text: as §2
# The results of neuropsychological tests for lacosamide monotherapy and lacosamide and oxcarbazepine combination therapy were evaluated. […] The other patient had similar results for monotherapy and combination treatment.
# [10] = test system: voltage-gated sodium channels; settings: cited from earlier work
# [11] = test system: AMPA, kainate, NMDA, GABAA, GABAB, dopaminergic, serotonergic, adrenergic, muscarinic or cannabinoid receptors; settings: cited from earlier work
# [12] = test system: patients suffering from ADHD; assay: Determination of clinically effective dose, lacosamide monotherapy vs combination therapy (Example 1); type: in vivo, human; settings: for Clinically effective dose of lacosamide: in monotherapy vs in combination therapy with oxcarbazepine
# Description: as §4, §2, §5
# Initially, a dose of 50 mg/12 hrs of lacosamide and a dose of 300 mg/12 hrs of oxcarbazepine was administered to every patient. Through the study, the dose of lacosamide was increased (by 100 mg per week) to 200 mg/12 hrs for every patient, following clinical response (attention capacity, sleep, tiredness, mood stability, comprehension and general cognitive improvement). […] The dose for oxcarbazepine was increased in week 7 to 450 mg/12 hrs for every patient, maintaining the previously reached respective doses for lacosamide.
# Starting from this initial dose (50 mg/12 hs), the dose of lacosamide was adjusted to reflect clinically effective dose, based on clinical signs. Lacosamide was initially raised by 100 mg/24 hs in two takes. The highest dose of lacosamide was 400 mg/24 hs. In the combination therapy, oxcarbazepine was raised from 600 mg to 900 mg for all participants after 6 weeks, regardless of their lacosamide dosage.
# The final dosage of lacosamide and oxcarbazepine was established based on patients' clinical results for executive dysfunction and the neurophysiological symptoms (e.g. hyperactivity, enuresis, and lethargy).
# [13] = test system: children who take methylphenidate; settings: cited from earlier work
# [14] = test system: Severe autism (Level 3); assay: Case Study C: (Example 3); type: in vivo, human
# From the text: as §1
# [15] = patient 001, October 2020 = lacosamide monotherapy, December 2020 = combination therapy
# [16] = patient 002, October 2020 = lacosamide monotherapy, December 2020 = combination therapy
# [17] = patient 003, October 2020 = after 6 months lacosamide alone, December 2020 = after 3 months combined therapy
# [18] = patient 003, table: December 2020, combined therapy, text b168: monotherapy vs combined therapy
# Chain of GABA transaminase (P80404 29-500, species assumed): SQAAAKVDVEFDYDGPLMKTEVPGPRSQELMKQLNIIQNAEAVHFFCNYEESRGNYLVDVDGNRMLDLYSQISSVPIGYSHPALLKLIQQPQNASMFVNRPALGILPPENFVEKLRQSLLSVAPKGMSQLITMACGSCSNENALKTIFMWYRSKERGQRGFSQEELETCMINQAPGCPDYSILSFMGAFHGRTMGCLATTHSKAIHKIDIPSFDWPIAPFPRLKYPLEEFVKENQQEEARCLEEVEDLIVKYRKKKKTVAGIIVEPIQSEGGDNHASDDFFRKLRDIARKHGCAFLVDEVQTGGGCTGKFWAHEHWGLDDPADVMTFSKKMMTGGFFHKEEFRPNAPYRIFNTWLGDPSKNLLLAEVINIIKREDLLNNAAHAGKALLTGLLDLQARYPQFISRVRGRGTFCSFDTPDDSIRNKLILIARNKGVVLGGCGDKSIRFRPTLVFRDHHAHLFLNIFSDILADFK
smiles,measurement,setting,value
CCCC(CCC)C(=O)O [Valproic Acid],"lasting improvement in treating subject's symptoms, drugs received prior to therapy used in this study",[1],None showed lasting improvement in treating
Nc1nnc(-c2cccc(Cl)c2Cl)c(N)n1 [Lamotrigine],Neurophysiological and Neuropsychological symptoms,[1],combined therapy. This was not accomplished
same,"lasting improvement in treating subject's symptoms, drugs received prior to therapy used in this study",[1],None showed lasting improvement in treating
"COC[C@@H](NC(C)=O)C(=O)NCc1ccccc1 [lacosamide, (2R)-2-(acetylamino)-N-benzyl-3-methoxypropanamide]","WCST Cognitive flexibility, Level",[2]; [15],1
same,"WCST Cognitive flexibility, persistent errors",[2]; [15],24 persistent
same,"WCST Reasoning (Abstraction Categorization), Level",[2]; [15],2
same,"WCST Reasoning (Abstraction Categorization), categories completed",[2]; [15],3 categories
same,"WCST Cognitive flexibility, Level",[2]; [16],0
same,"WCST Cognitive flexibility, persistent errors",[2]; [16],5 persistent
same,"WCST Reasoning (Abstraction Categorization), Level",[2]; [16],0
same,"WCST Reasoning (Abstraction Categorization), categories completed",[2]; [16],8 categories
same,"WCST Cognitive flexibility, Level",[2]; [17],2
same,"WCST Cognitive flexibility, persistent errors",[2]; [17],23 persistent
same,"WCST Reasoning (Abstraction Categorization), Level",[2]; [17],2
same,"WCST Reasoning (Abstraction Categorization), categories completed",[2]; [17],4 categories
same,"WCST Cognitive flexibility, interpretation",[2]; [18],Slight
same,"WCST Reasoning (Abstraction Categorization), interpretation",[2]; [18],Slight Impairment
same,Stroop-c Level,[3]; [15],1
same,"Stroop-c Nominative capacity, Severity Range",[3]; [15],43/100
same,Stroop-c/p Level,[3]; [15],1
same,"Stroop-c/p Resistance to Perseveration, Severity Range",[3]; [15],18/100
same,Stroop-p Level,[3]; [15],2
same,"Stroop-p Nominative capacity, Severity Range",[3]; [15],51 and 51/100
same,Stroop-p Actual Interpretation,"[3]; patient 001, table: December 2020, combination therapy, text b160: before vs after",Slight Impairment
same,Stroop-c Level,[3]; [16],3
same,"Stroop-c Nominative capacity, Severity Range",[3]; [16],40/100
same,Stroop-c/p Level,[3]; [16],2
same,"Stroop-c/p Resistance to Perseveration, Severity Range",[3]; [16],30/100
same,Stroop-p Level,[3]; [16],4
same,"Stroop-p Nominative capacity, Severity Range",[3]; [16],32/100
same,Stroop-c Level,[3]; [17],2
same,"Stroop-c Nominative capacity, Severity Range",[3]; [17],51/100
same,Stroop-c/p Level,[3]; [17],3
same,"Stroop-c/p Resistance to Perseveration, Severity Range",[3]; [17],21/100
same,Stroop-p Level,[3]; [17],3
same,"Stroop-p Nominative capacity, Severity Range",[3]; [17],51/100
same,block of potassium or calcium currents,[4],does not block
same,"modulation of the reuptake of neurotransmitters including norepinephrine, dopamine, and serotonin",[5],does not modulate
same,"mood instability (aggressive behaviour towards others, deliberately contained anger, sadness)",[6]; ADHD patients,only partially regressed
same,cognitive disabilities,[6]; Case 001,improved many cognitive disabilities
same,"dysphasia, and extreme impulsiveness",[6]; Case 001,remained unchanged
same,pedagogic evolution (Comprehensive Reading),[6]; Case 002,never obtained
same,ability to speak,[6]; Cases 002 and 003,unaffected
same,cognitive disability,[6]; Cases 002 and 003,"improved under lacosamide alone, but the degree of the disability never really disappeared"
same,hyperactivity regulation (severe hyperkinesia),[6]; the one of 3 ADHD patients with hyperkinesia,did not improve
same,enuresis episodes,[6]; the two patients that suffered from this symptom,partially stopped
same,lethargic situations,[6]; two patients with absence of energy and tense tiredness,disappeared
same,inhibition of GABA transaminase,[7],does not inhibit
same,non-verbal reasoning capacity,"[8]; Case 003, after 6 months Lacosamide monotherapy vs after combined therapy",95 points
same,"TONI-2 Nonverbal Reasoning Ability, Level (CI)",[8]; [15],CI-111
same,"TONI-2 Nonverbal Reasoning Ability, Severity Range",[8]; [15],17/55
same,"TONI-2 Nonverbal Reasoning Ability, Level (CI)",[8]; [16],CI-104
same,"TONI-2 Nonverbal Reasoning Ability, Severity Range",[8]; [16],28/55
same,"TONI-2 Nonverbal Reasoning Ability, Level (CI)",[8]; [17],CI-95
same,"TONI-2 Nonverbal Reasoning Ability, Severity Range",[8]; [17],19/55
same,CPT-2-c Level,[9]; [15],1
same,CPT-2-c impulsivity indicators (Severity Range),[9]; [15],No
same,CPT-2-o Level,[9]; [15],Clinical
same,"CPT-2-o Severity Range, score",[9]; [15],76.92%
same,CPT-2-o inattention indicators,[9]; [15],6
same,CPT-2-o indicators within limitations in surveillance,[9]; [15],2 indicators
same,CPT-2-o Actual Interpretation,"[9]; patient 001, table: December 2020, combination therapy, text b159: first vs second evaluation",Severe Impairment
same,CPT-2-c Level,[9]; [16],2
same,CPT-2-c impulsivity indicators (Severity Range),[9]; [16],1 impulsivity
same,CPT-2-o Level,[9]; [16],Non
same,"CPT-2-o Severity Range, score",[9]; [16],37.01%
same,CPT-2-o inattention indicators,[9]; [16],2 inattention
same,CPT-2-c Level,[9]; [17],2
same,CPT-2-c impulsivity indicators (Severity Range),[9]; [17],1 impulsivity
same,CPT-2-o Level,[9]; [17],Clinical
same,"CPT-2-o Severity Range, score",[9]; [17],50%
same,CPT-2-o inattention indicators,[9]; [17],(6 inattention
same,fast inactivation of voltage-gated sodium channels,[10],without affecting
same,slow inactivation of voltage-gated sodium channels,[10],enhances
same,"effect on AMPA, kainate, NMDA, GABAA, GABAB or dopaminergic, serotonergic, adrenergic, muscarinic or cannabinoid receptors",[11],does not affect
same,clinically effective dose of lacosamide in monotherapy,[12]; 2 patients,600 mg per day
same,Clinically effective dose of lacosamide,[12]; Patient 1,600 mg/day
same,Clinically effective dose of lacosamide,[12]; Patient 2,600 mg/day
same,Clinically effective dose of lacosamide,[12]; Patient 3,350 mg/day
same,clinically effective dose of lacosamide in monotherapy,[12]; one patient,350 mg
COC(=O)C(c1ccccc1)C1CCCCN1 (stereo not drawn) [Methylphenidate],share of children who develop symptoms of obsessive-compulsive behaviour,[13],one third
same,"lasting improvement in treating subject's symptoms, drugs received prior to therapy used in this study",[1],None showed lasting improvement in treating
"NC(=O)N1c2ccccc2CC(=O)c2ccccc21 [oxcarbazepine, 5-oxo-6H-benzo[b][1]benzazepine-11-carboxamide]",aggressive behavior and lack of interactivity with other members of the household,[14],attention. They maintained aggressive
same,delivery of the desired therapeutic result,[14],Oxcarbazepine alone was not sufficient to
same,hyperkinesia and impulsiveness,[14],Minor improvement to subject's hyper-
same,sleeping pattern,[14],instability remained in sleeping pattern
same,"way they behaved during awake moments, quality of their day's attention",[14],not approve in the way they behaved during
